Columns and labels:
[1] = Liquid
[2] = xn = mol fraction of the nth substance listed; conditions: 101.3 kPa, Liquid

NCCO [2-aminoethan-1-ol]
Conditions | mass density [kg/m3]
[1], 293.15 K, 101.33 kPa, Pycnometric method | 1012.1

[1], 101.3 kPa
Conditions | viscosity [mPa·s]
298.15 K | 18.91
303.15 K | 14.71
308.15 K | 11.82
313.15 K | 9.27
318.15 K | 7.52
323.15 K | 6.21

NCCO [2-aminoethan-1-ol] + O
viscosity [mPa·s], [2]
Conditions | x1 = 0.03219 | x1 = 0.06969 | x1 = 0.1138 | x1 = 0.1666 | x1 = 0.2306 | x1 = 0.3102 | x1 = 0.4116 | x1 = 0.5452 | x1 = 0.7296 | x1 = 1
303.15 K | 1.081 | 1.448 | 2.041 | 2.93 | 4.28 | 6.27 | 9.25 | 12.42 | 14.56 | 14.71
308.15 K | 0.962 | 1.282 | 1.784 | 2.513 | 3.61 | 5.23 | 7.3 | 9.75 | 11.62 | 11.82
313.15 K | 0.865 | 1.149 | 1.536 | 2.085 | 2.932 | 4.23 | 5.88 | 7.82 | 9.26 | 9.27
318.15 K | 0.779 | 1.01 | 1.345 | 1.786 | 2.472 | 3.51 | 4.92 | 6.53 | 7.57 | 7.52
323.15 K | 0.703 | 0.907 | 1.173 | 1.553 | 2.125 | 2.925 | 3.95 | 5.24 | 6.06 | 6.21

CCOCCO [2-ethoxyethan-1-ol]
[1]
Conditions | mass density, 293.15 K [kg/m3] | viscosity, 293.15 K [mPa·s] | viscosity, 303.15 K [mPa·s] | viscosity, 308.15 K [mPa·s] | viscosity, 313.15 K [mPa·s] | viscosity, 318.15 K [mPa·s] | viscosity, 323.15 K [mPa·s]
101.3 kPa | – | 2.077 | 1.612 | 1.413 | 1.24 | 1.166 | 1.026
101.33 kPa | 929.7 | – | – | – | – | – | –

CCOCCO [2-ethoxyethan-1-ol] + O
viscosity [mPa·s], [2]
Conditions | x1 = 0.0201 | x1 = 0.04419 | x1 = 0.07339 | x1 = 0.1098 | x1 = 0.1561 | x1 = 0.2172 | x1 = 0.3015 | x1 = 0.4252 | x1 = 0.6247 | x1 = 1
303.15 K | 1.046 | 1.384 | 1.709 | 2.135 | 2.516 | 2.711 | 2.858 | 2.747 | 2.266 | 1.612
308.15 K | 0.924 | 1.177 | 1.472 | 1.769 | 2.057 | 2.248 | 2.329 | 2.2 | 1.951 | 1.413
313.15 K | 0.814 | 1.008 | 1.238 | 1.499 | 1.711 | 1.864 | 1.947 | 1.867 | 1.676 | 1.24
318.15 K | 0.71 | 0.898 | 1.108 | 1.322 | 1.521 | 1.663 | 1.723 | 1.632 | 1.516 | 1.166
323.15 K | 0.651 | 0.791 | 0.958 | 1.164 | 1.339 | 1.45 | 1.55 | 1.486 | 1.361 | 1.026

COCCO [2-methoxyethan-1-ol]
[1]
Conditions | mass density, 293.15 K [kg/m3] | viscosity, 293.15 K [mPa·s] | viscosity, 303.15 K [mPa·s] | viscosity, 308.15 K [mPa·s] | viscosity, 313.15 K [mPa·s] | viscosity, 318.15 K [mPa·s] | viscosity, 323.15 K [mPa·s]
101.3 kPa | – | 1.991 | 1.375 | 1.126 | 0.942 | 0.832 | 0.757
101.33 kPa | 965.2 | – | – | – | – | – | –

Conditions | viscosity [mPa·s]
[1], 293.15 K, 101.33 kPa, Capillary tube (Ostwald / Ubbelohde) method | 1.991

COCCO [2-methoxyethan-1-ol] + O
viscosity [mPa·s], [2]
Conditions | x1 = 0.0247 | x1 = 0.05399 | x1 = 0.08909 | x1 = 0.1321 | x1 = 0.1858 | x1 = 0.2551 | x1 = 0.3475 | x1 = 0.4773 | x1 = 0.6726 | x1 = 1
303.15 K | 1.08 | 1.353 | 1.656 | 1.979 | 2.247 | 2.396 | 2.418 | 2.296 | 1.825 | 1.375
308.15 K | 0.953 | 1.165 | 1.459 | 1.652 | 1.888 | 2.016 | 2.051 | 1.941 | 1.528 | 1.126
313.15 K | 0.811 | 0.985 | 1.205 | 1.367 | 1.529 | 1.668 | 1.733 | 1.6 | 1.323 | 0.942
318.15 K | 0.735 | 0.885 | 1.031 | 1.176 | 1.368 | 1.457 | 1.53 | 1.41 | 1.133 | 0.832
323.15 K | 0.667 | 0.796 | 0.926 | 1.056 | 1.226 | 1.322 | 1.381 | 1.258 | 1.05 | 0.757

O [water] + CCOCCO
[2], x2 = 0
Conditions | viscosity [mPa·s]
303.15 K | 0.7975
308.15 K | 0.7195
313.15 K | 0.6532
318.15 K | 0.5963
323.15 K | 0.5471

O [water] + COCCO
[2], x2 = 0
Conditions | viscosity [mPa·s]
303.15 K | 0.7975
308.15 K | 0.7195
313.15 K | 0.6532
318.15 K | 0.5963
323.15 K | 0.5471

O [water] + NCCO
[2], x2 = 0
Conditions | viscosity [mPa·s]
303.15 K | 0.7975
308.15 K | 0.7195
313.15 K | 0.6532
318.15 K | 0.5963
323.15 K | 0.5471
